From US20260258084A1, “New Peptides as Selective IL-23 Receptor Antagonists” (Sanofi, priority 2022, published 2026)
Values after ≈ are worked out from the molar mass of the structure shown. Read-outs that look alike come from different tables or passages of the source. Starred links: 1 amine or outer side, 2 acyl side, 3 side chain; linkers in the order of their positions; H or OH if unused. Positions of bridges follow the written chain, without caps; N, C: chain ends. Non-standard residues stand in square brackets, D forms with d. Residues, ends and D or L forms follow the SMILES beside them. *: point of attachment. X5 = CN(C(=O)CCC(=O)[*:3])[C@@H](CS[*:2])C(=O)[*:1]; Trp(7-Me) = Cc1cccc2c(C[C@H](N)C(=O)O)c[nH]c12; X1 = O=C(CCCCN[*:3])N[C@@H](CS[*:2])C(=O)[*:1]; 2Nal = N[C@@H](Cc1ccc2ccccc2c1)C(=O)O; 3Pal = N[C@@H](Cc1cccnc1)C(=O)O; Lys(Me) = CNCCCC[C@H](N)C(=O)O; NMeN = CN[C@@H](CC(N)=O)C(=O)O; αMeL = CC(C)C[C@](C)(N)C(=O)O; Thp = NC1(C(=O)O)CCOCC1; Me2NCH2CH2 = CN(C)CC*; Aib = CC(C)(N)C(=O)O; Ahx = NCCCCCC(=O)O; Ava = NCCCCC(=O)O; Sar = CNCC(=O)O

T1: recombinant human IL-23R-Fc chimera (human, UniProt Q5VWK5 24-353)
T1 construct: used at 0.1 µg/ml in the ELISA; not shown: Fc part of the chimera; detected with goat anti-hu-IgG1-HRP a
T1 sequence (looked up): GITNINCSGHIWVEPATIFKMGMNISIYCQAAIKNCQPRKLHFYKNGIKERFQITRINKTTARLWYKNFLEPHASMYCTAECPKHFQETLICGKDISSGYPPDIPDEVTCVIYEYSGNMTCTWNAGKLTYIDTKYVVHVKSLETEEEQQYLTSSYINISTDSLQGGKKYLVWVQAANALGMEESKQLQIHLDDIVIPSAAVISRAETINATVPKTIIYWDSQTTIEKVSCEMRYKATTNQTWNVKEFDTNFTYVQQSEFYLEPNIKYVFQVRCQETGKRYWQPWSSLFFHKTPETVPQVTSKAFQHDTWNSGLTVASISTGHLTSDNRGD


Columns and labels:
[1] = Solubility testing of peptides at different pH; type: physicochemical; settings: target concentration 1 mg/ml, 2 hours agitation
Method in brief: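 Solid obtained by drying down DMSO stock was taken up at 1 mg/mL in 50 mM HCl pH 1.2 or 50 mM phosphate pH 6.5, 7.4 or 9.0, agitated gently for 2 h, then filtered (0.45 μm). Solubility by UPLC-UV peak area against a DMSO reference standard curve, corrected for extinction coefficients.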

[2] = system: IL-23 induced STAT3 signaling in HEK-Blue™ IL-23 cells; assay: IL-23 induced STAT3 signaling in HEK-Blue IL-23 cells (SEAP reporter); type: cell-based; settings: human IL23 0.25 ng/ml, read-out: pSTAT3
Method in brief: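 HEK-Blue IL-23 cells (10,000/well) pre-incubated 60 min at 37 °C with serially diluted peptides, then stimulated overnight with human IL-23 (0.25 ng/ml final). STAT3-driven SEAP in supernatant detected with QUANTI-Blue after 45 min at RT (OD 620-655 nm); dose-response curves fitted.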

Pepsin = system: T2, Pepsin; assay: Protease stability in simulated gastric fluid (Pepsin-SGF, FaSSGF); type: in vitro ADME; settings: simulated gastric fluid with pepsin (Pepsin-SGF), 60 min, 1 μM peptide, 37° C., read-out: FaSSGF 60 (min), remaining percent of peptide
T2 construct: purchased Merck Millipore
Method in brief: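 Peptides at 1 μM final in pepsin-containing SGF at 37° C, sampled at 0, 60, 120 and 240 min, quenched with ethanol (0.1% HCOOH). Analysed by LCMS/MS; percent remaining from peak area relative to time 0 (set to 100%).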

Pancreatin = assay: Protease stability in simulated intestinal fluid (Pancreatin-SIF, FaSSIF); type: in vitro ADME; settings: 1 μM peptide, 37° C.; for remaining at 1 h, 1 µM: 60 min, read-out: FaSSIF 60 (min), remaining percent of peptide; for remaining at 2 h, 1 µM: 120 min, read-out: FaSSIF 120 (min), remaining percent of peptide; for remaining at 4 h, 1 µM: 240 min, read-out: FaSSIF 240 (min), remaining percent of peptide
Method in brief: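 Peptide (1 μM final) was incubated at 37° C in simulated intestinal fluid containing pancreatin (1 mg per 10 mL SIF concentrate). Samples were quenched with ethanol/0.1% HCOOH at 0, 60, 120 and 240 min and analysed by LC-MS/MS. Percent remaining is the peak area relative to time 0 (100%).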

[3] = Chemical stability assessment of peptides (relative purity loss); type: physicochemical; settings: 24 hours at 37° C.; for Chemical stability (relative purity loss) Buffer pH 1.2: 50 mM HCl pH 1.2 + acetonitrile (1:1); for Chemical stability (relative purity loss) Buffer pH 6.5: 50 mM phosphate buffer pH 6.5 + acetonitrile (1:1); for Chemical stability (relative purity loss) Buffer pH 7.4: 50 mM phosphate buffer pH 7.4 + acetonitrile (1:1)
Method in brief: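 Peptide solutions at 1 mg/ml (purity-corrected) in 1:1 acetonitrile with 50 mM HCl pH 1.2, or 50 mM phosphate pH 6.5 or pH 7.4, held 24 hours at 2° C. and 37° C. Supernatants analysed by UHPLC-UV; relative purity loss taken as percent drop in peak-area purity from 0 to 24 hours at 37° C.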

[4] = biological target: T3, human interleukin-23 receptor (recombinant human IL-23R-Fc chimera) (Homo sapiens, UniProt Q5VWK5); assay: Human ELISA IL23/IL23R (assay for specific human IL23R antagonists); type: binding; settings: Table 10; read-out: Human ELISA IL23/IL23R IC50
T3 construct: Fc (IgG Fc fusion)
Method in brief: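 Plates coated overnight at 4 °C with human IL23 ([…]), blocked, then serially diluted peptides added with recombinant human IL-23R-Fc (0.1 μg/ml final) for 60 min at room temperature. Bound receptor detected with anti-human IgG1-HRP and fluorogenic peroxidase substrate.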

[5] = biological target: T1, recombinant human IL-23R-Fc chimera; assay: competition ELISA: IL-23R-Fc binding to coated human IL23
Experimental: Antagonism of compounds for human interleukin-23 receptor antagonists, was determined by an ELISA assay.
A 384-well plate was coated with 50 μl/well of human IL23 at a final concentration of […] and incubated overnight at 4° C. The wells were washed 3 times with 80 μl wash buffer and blocked with 80 μl blocking buffer for 60 minutes at room temperature and washed again. 20 μl of serially diluted test peptides was added to each well and subsequently 20 μl of recombinant human IL-23R-Fc chimera at final concentration of 0.1 μg/ml. The plate was incubated for 60 minutes at room temperature. After the wells were washed, bound IL23R-Fc was detected with goat anti-hu-IgG1-HRP antibody. Signals were visualized with QuantaBlu Fluorogenic Peroxidase Substrate.

[6] = 50 mM HCl buffer, 50 mM HCl pH 1.2, read-out: Solubility Buffer pH 1.2
[7] = 50 mM phosphate buffer pH 6.5, read-out: Solubility Buffer pH 6.5
[8] = 50 mM phosphate buffer pH 7.4, read-out: Solubility Buffer pH 7.4
[9] = 50 mM phosphate buffer pH 9.0, read-out: Solubility Buffer pH 9.0

| Molecule | solubility at 2 h [1, 6] [µg/mL] | solubility at 2 h [1, 7] [µg/mL] | solubility at 2 h [1, 8] [µg/mL] | remaining at 1 h, 1 µM (Pepsin) [%] | remaining at 1 h, 1 µM (Pancreatin) [%] | remaining at 2 h, 1 µM (Pancreatin) [%] | remaining at 4 h, 1 µM (Pancreatin) [%] | Chemical stability (relative purity loss) Buffer pH 1.2 [3] [%] | Chemical stability (relative purity loss) Buffer pH 6.5 [3] [%] | Chemical stability (relative purity loss) Buffer pH 7.4 [3] [%] | IC50 [4] [nM] | solubility at 2 h [1, 9] [µg/mL] | IC50 [5] [nM] | IC50 [2] [nM] |
| --- | --- | --- | --- | --- | --- | --- | --- | --- | --- | --- | --- | --- | --- | --- |
| COc1ccc(C[C@@H]2NC(=O)[C@@H]3CSSC[C@H](NC(=O)CCCCCNC(=O)CC[C@@H](C(=O)N[C@@H](CC(N)=O)C(=O)N[C@@H](CC(N)=O)C(N)=O)NC(=O)C(C)(C)NC(=O)[C@H](Cc4ccc5ccccc5c4)NC2=O)C(=O)N[C@@H](CC(N)=O)C(=O)N[C@@H]([C@@H](C)O)C(=O)N[C@@H](Cc2c[nH]c4ccccc24)C(=O)N[C@@H](CCC(N)=O)C(=O)N3)cc1 [compound 2] ([Ahx]CNTWQCY(Me)[2Nal][Aib]ENN-NH2; disulfide 2-7; lactam N-11) | 100 (≈ 60.1 µM) | < 50 | < 50 | 1 | 71 | 71 | 47 | 27.5 | 0.1 | 0.8 | 0.6 | – | – | 54 |
| COc1ccc(C[C@@H]2NC(=O)[C@@H]3CSSC[C@H](NC(=O)CCCCCNC(=O)C[C@@H](C(=O)N[C@@H](CC(N)=O)C(=O)N[C@@H](CC(N)=O)C(N)=O)NC(=O)C(C)(C)NC(=O)[C@H](Cc4ccc5ccccc5c4)NC2=O)C(=O)N(C)[C@@H](CC(N)=O)C(=O)N[C@@H]([C@@H](C)O)C(=O)N[C@@H](Cc2c[nH]c4ccccc24)C(=O)N[C@@H](CCC(N)=O)C(=O)N3)cc1 [compound 6] ([Ahx]C[NMeN]TWQCY(Me)[2Nal][Aib]DNN-NH2; disulfide 2-7; lactam N-11) | 40 (≈ 24.1 µM) | 30 (≈ 18 µM) | 20 (≈ 12 µM) | 1 | 78 | 77 | 51 | 27.4 | – | 3.1 | 0.68 | – | – | 72.9 |
| CC(=O)N[C@H]1CCCCNC(=O)[C@@H]2CSSC[C@H](NC(=O)[C@H](CCC(N)=O)NC(=O)[C@H](Cc3c[nH]c4ccccc34)NC1=O)C(=O)N[C@@H](Cc1ccc(OCCN(C)C)cc1)C(=O)N[C@@H](Cc1ccc3ccccc3c1)C(=O)NC1(CCOCC1)C(=O)N[C@H](C(=O)N[C@@H](CC(N)=O)C(=O)NCC(N)=O)CCC(=O)NCCCCC(=O)N2 [compound 30] (Ac-KWQCY(Me2NCH2CH2)[2Nal][Thp]ENG-NH2; linker 1-4-8 via X1) | – | – | – | 87 | 93 | 92 | 83 | 18.7 | 2.1 | 3.7 | 0.54 | – | – | 5.41 |
| XXNTWQXXXXENN (not fully specified; Apt(§1)-Pen(@2)-N-T-W-Q-Pen(@2)-Yae-Nal-Thp-E(§1)-N-N-NH2) [Pen peptide compound of SEQ ID NO: 163] | – | – | – | – | – | – | – | – | – | – | – | – | 163 | – |

Continued, in another order:

| solubility at 2 h [1, 6] [µg/mL] | solubility at 2 h [1, 7] [µg/mL] | solubility at 2 h [1, 8] [µg/mL] | remaining at 1 h, 1 µM (Pepsin) [%] | remaining at 1 h, 1 µM (Pancreatin) [%] | remaining at 2 h, 1 µM (Pancreatin) [%] | remaining at 4 h, 1 µM (Pancreatin) [%] | Chemical stability (relative purity loss) Buffer pH 1.2 [3] [%] | Chemical stability (relative purity loss) Buffer pH 6.5 [3] [%] | Chemical stability (relative purity loss) Buffer pH 7.4 [3] [%] | IC50 [4] [nM] | solubility at 2 h [1, 9] [µg/mL] | IC50 [5] [nM] | Molecule | IC50 [2] [nM] |
| --- | --- | --- | --- | --- | --- | --- | --- | --- | --- | --- | --- | --- | --- | --- |
| ≥ 910 | ≥ 980 | ≥ 910 | 95 | 90 | 86 | 81 | – | – | – | 0.41 | – | – | Cc1cccc2c(C[C@@H]3NC(=O)[C@H]([C@@H](C)O)NC(=O)[C@H](CC(N)=O)NC(=O)[C@@H]4CSSC[C@H](NC(=O)[C@H](CCC(N)=O)NC3=O)C(=O)N[C@@H](Cc3ccc(OCCN(C)C)cc3)C(=O)N[C@@H](Cc3ccc5ccccc5c3)C(=O)N[C@@](C)(CC(C)C)C(=O)N[C@H](C(=O)N[C@@H](CC(N)=O)C(=O)N[C@@H](Cc3cccnc3)C(=O)N(C)CC(N)=O)CCC(=O)NCCCCC(=O)N4)c[nH]c12 [compound 63] ([Ava]CNT[Trp(7-Me)]QCY(Me2NCH2CH2)[2Nal][αMeL]EN[3Pal][Sar]-NH2; disulfide 2-7; lactam N-11) | 0.2 |
| ≥ 1630 | ≥ 1040 | ≥ 1290 | 94 | 94 | 94 | 88 | – | – | – | 0.52 | ≥ 1130 | – | CC(=O)NCCCC[C@@H]1NC(=O)[C@H](Cc2c[nH]c3c(C)cccc23)NC(=O)[C@@H](NC(C)=O)CCCCNC(=O)[C@@H]2CSSC[C@H](NC1=O)C(=O)N[C@@H](Cc1ccc(OCCN(C)C)cc1)C(=O)N[C@@H](Cc1ccc3ccccc3c1)C(=O)NC1(CCOCC1)C(=O)N[C@H](C(=O)N[C@@H](CC(N)=O)C(=O)N[C@@H](Cc1cccnc1)C(=O)N(C)CC(N)=O)CCC(=O)NCCCCC(=O)N2 [compound 66] (Ac-K[Trp(7-Me)]K(Ac)CY(Me2NCH2CH2)[2Nal][Thp]EN[3Pal][Sar]-NH2; linker 1-4-8 via X1) | 0.15 |
| ≥ 1390 | ≥ 980 | 330 (≈ 174 µM) | 92 | 87 | 84 | 78 | – | – | – | 0.54 | 180 (≈ 95.1 µM) | – | CC(=O)NCCCC[C@@H]1NC(=O)[C@H](Cc2c[nH]c3c(C)cccc23)NC(=O)[C@@H](NC(C)=O)CCCCNC(=O)[C@@H]2CSSC[C@H](NC1=O)C(=O)N[C@@H](Cc1ccc(OCCN(C)C)cc1)C(=O)N[C@@H](Cc1ccc3ccccc3c1)C(=O)NC1(CCOCC1)C(=O)N[C@H](C(=O)N[C@@H](CC(N)=O)C(=O)N[C@@H](Cc1cccnc1)C(=O)N(C)CC(N)=O)CCCCN(C)C(=O)CCC(=O)N2C [compound 74] (Ac-K[Trp(7-Me)]K(Ac)CY(Me2NCH2CH2)[2Nal][Thp][Lys(Me)]N[3Pal][Sar]-NH2; linker 1-4-8 via X5) | 0.12 |
